In assay [1] the target is NS4B peptide 121-171 (cytosolic loop) (Dengue virus type 2, UniProt P29990). It counts as binding. As to conditions: aa 121 to 171.
In assay [2] the target is DENV-2 NS4B/NS3 interaction (Dengue virus type 2, UniProt P29990). It is filed as binding.
Assay [3] has as its system four serotypes of DENV. As to conditions: cited from earlier work.
In assay [4] the target is WT DENV-2 NS4B (Dengue virus type 2, UniProt P29990). Put plainly: ITC binding of inhibitor to NS4B.
The subject of assay [5] is DENV-2 NGC strain (WT). Put plainly: microbe, parasite or virus in culture. It is filed as cell-based.
For assay [6], the target named is NS4B/NS3 interaction (WT NS4B) (Dengue virus type 2, UniProt P14340). It is filed as cell-based.
NS4B/NS3 interaction (WT NS4B), sequence (P14340 2244-2491): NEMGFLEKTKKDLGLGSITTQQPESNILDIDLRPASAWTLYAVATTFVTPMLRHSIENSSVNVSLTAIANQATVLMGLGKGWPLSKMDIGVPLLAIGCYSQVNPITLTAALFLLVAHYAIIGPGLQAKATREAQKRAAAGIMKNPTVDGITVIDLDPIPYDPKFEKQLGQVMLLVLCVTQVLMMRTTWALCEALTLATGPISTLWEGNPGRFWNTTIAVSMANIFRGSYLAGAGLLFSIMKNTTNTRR
The subject of assay [7] is DENV-2 NGC-Nluc. Description: Antiviral assay using NGC-Nluc in Huh7 cells. It is filed as cell-based.
Assay [8] concerns the target recombinant WT ZIKV NS4B (ZIKV) (UniProt Q32ZE1). Put plainly: ITC. (ITC needs no label: the signal is the heat of the interaction.)
Assay [9] addresses recombinant DENV-2 NS4B (mature, full-length) with an N-terminal hexahistidine tag (DENV-2) (UniProt P14340). Description: BLI. On the technique in general: In BLI a coated tip is dipped into the sample, and binding shifts an interference pattern.
For assay [10] the target is unchanged. Put plainly: ITC.

We go through 4 molecules from paper PMC12002330 (Proceedings of the National Academy of Sciences of the …, 2025).

By EC50 is commonly meant the concentration needed to bring the measured effect to its halfway point. By Kd is commonly meant the equilibrium constant for the complex coming apart.

Like-named read-outs stand apart in the source and are kept apart here.

recombinant DENV-2 NS4B (mature, full-length) with an N-terminal hexahistidine tag (DENV-2), sequence (P14340 2244-2491 limits assumed): as the sequence (P14340 2244-2491) above
recombinant DENV-2 full-length NS3, sequence (P14340 1476-2093 limits assumed): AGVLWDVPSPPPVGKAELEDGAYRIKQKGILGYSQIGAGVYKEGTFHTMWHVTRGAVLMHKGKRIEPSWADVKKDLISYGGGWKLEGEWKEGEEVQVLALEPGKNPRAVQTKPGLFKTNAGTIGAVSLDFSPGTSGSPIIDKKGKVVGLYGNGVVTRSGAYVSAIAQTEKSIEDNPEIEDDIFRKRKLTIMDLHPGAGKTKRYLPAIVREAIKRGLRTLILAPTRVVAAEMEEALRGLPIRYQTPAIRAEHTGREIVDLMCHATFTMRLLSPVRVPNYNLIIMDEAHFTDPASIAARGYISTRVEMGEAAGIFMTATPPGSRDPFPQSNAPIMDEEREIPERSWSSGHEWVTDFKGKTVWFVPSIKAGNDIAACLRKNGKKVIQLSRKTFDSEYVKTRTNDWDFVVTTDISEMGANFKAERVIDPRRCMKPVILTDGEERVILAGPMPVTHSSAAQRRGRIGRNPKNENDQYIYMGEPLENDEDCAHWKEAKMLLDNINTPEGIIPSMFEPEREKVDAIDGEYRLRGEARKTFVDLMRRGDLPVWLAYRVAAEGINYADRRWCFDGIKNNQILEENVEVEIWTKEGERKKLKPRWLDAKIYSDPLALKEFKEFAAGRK
DENV-2 NS4B/NS3 interaction, sequence (P29990 2244-2491): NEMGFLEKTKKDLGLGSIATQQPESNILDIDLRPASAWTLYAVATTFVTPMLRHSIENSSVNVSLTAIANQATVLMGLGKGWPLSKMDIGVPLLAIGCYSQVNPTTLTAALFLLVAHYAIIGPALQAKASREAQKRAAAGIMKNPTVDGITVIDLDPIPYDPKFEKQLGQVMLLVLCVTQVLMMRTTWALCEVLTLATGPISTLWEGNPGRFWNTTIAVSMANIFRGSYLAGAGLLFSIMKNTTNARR
WT DENV-2 NS4B, sequence (P29990 2244-2491): as above
NS4B peptide 121-171 (cytosolic loop), sequence (P29990 2364-2414): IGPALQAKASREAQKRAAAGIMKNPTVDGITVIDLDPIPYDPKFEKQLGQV

With `COc1cc(N[C@H](C(=O)c2c[nH]c3ccc(OC(F)(F)F)cc23)c2ccc(Cl)cc2OC)cc(S(C)(=O)=O)c1` [JNJ-1802], the “binding to cytosolic loop of NS4B by ITC” value in assay [1] is “not the cytosolic loop”. The “more inhibition of NS4B/NS3 interactions than NITD-688” value in assay [2] (ITC assay) was “approximately 4 fold”. For the same molecule, the “inhibition of NS4B/NS3 binding” value in [2] (ITC, JNJ-1802 preincubated with NS4B) is recorded as “effectively inhibited”. The “efficacy against four serotypes of DENV” value in assay [3] is recorded as “picomolar to low nanomolar efficacy”. Besides, in assay [4], the “higher binding affinity to NS4B compared to NITD-688” value is listed as 4.2 fold. Besides, the “higher potency in cellular assays than NITD-688” value in assay [5] was ~ 100 fold. Also, the EC50 is 0.019 nM in [5] (Dengue virus, DENV2, A549, 48 h, read-out: EC50 (averaged)) and 0.031 nM in [7] (Dengue virus, DENV2, Huh-7, 48 h). Moreover, the “decrease of NS3 co-IPed with NS4B” value in assay [6] (10 nM JNJ-1802 added at 4 h posttransfection) is 80%; in assay [6] (10 nM JNJ-1802 added at 24 h posttransfection), 8%.

In assay [7] (Huh7 cells), `C#C[C@@]1(O)[C@H](O)[C@@H](CO)O[C@H]1n1ccc2c(N)ncnc21` [NITD-008] had an EC50 of 380 nM.

For the molecule “NS3 used in the ITC of ZIKV NS4B/NS3 interactions (enzyme)”, the Kd in [8] is 3.4 µM.

Take “recombinant DENV-2 full-length NS3 (from UniProt P14340 1476-2093) (enzyme)”: in [9], the Kd came to 13 µM and the fold increase of koff, 200 nM against 3.1 nM NITD-688 was determined as 2.6 fold. In assay [10], the KD with NITD-688 (molar ratio to NS4B 1:2) turned out to be 26.2 µM, the KD with NITD-688 (molar ratio to NS4B 4:1) was determined as 594 µM and the Kd was 12.3 µM.
